{"source": "patent JP2023117892A", "about": "“ヘプシジン結合ペプチド” (Public Interest Inc Foundation Oyokyo, priority 2022, dated 2023)", "key": {"[1]": {"system": "renal anemia model mice (腎性貧血モデルマウス)", "assay": "Effect of HBP in renal anemia model mice (adenine sulfate-induced renal failure)", "format": "in vivo, mouse"}, "[2]": {"system": "human ferroportin fused to EGFP (FPN-EGFP) (ヒトのフェロポーチン(FPN)にEGFPを融合させたタンパク質)", "assay": "Western blot of ferroportin (FPN-EGFP) in HEK293 cells treated with hepcidin", "format": "cell-based", "conditions": "HEK293 expressing FPN-EGFP"}, "[3]": {"system": "HepG2 cells, human liver cancer-derived (ヒト肝癌由来細胞HepG2)", "assay": "Intracellular iron (ferritin ELISA) in HepG2 cells treated with hepcidin", "format": "cell-based", "conditions": "Fig. 7A"}, "[4]": {"system": "COS-1 cells, monkey kidney-derived fibroblasts (サル腎臓由来線維芽細胞(COS-1))", "assay": "Intracellular iron (ferritin ELISA) in FPN-EGFP-expressing COS-1 cells treated with hepcidin", "format": "cell-based", "conditions": "COS-1 expressing FPN-EGFP, Fig. 7B"}, "[5]": {"system": "C57/BL6 mice (マウス(C57/BL6))", "assay": "Serum iron in mice given hepcidin", "format": "in vivo, mouse", "conditions": "Fig. 7C"}, "[6]": {"target": "T1, hepcidin (ヘプシジン) (Homo sapiens, UniProt P81172)", "T1 sequence (P81172 60-84 limits assumed)": "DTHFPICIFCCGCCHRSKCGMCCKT", "assay": "Bio-layer interferometry (BLI) of the peptide on biotinylated hepcidin (Octet K2)", "format": "binding", "set-up": "ビオチン化ヘプシジン(Bachem社製); purchased Bachem", "conditions": "peptide 2.5, 4, 6, 8 or 10 μM"}, "[7]": {"target": "T1, hepcidin (ヘプシジン)", "assay": "Binding of the 12-amino-acid peptide to hepcidin, linear versus cyclised"}, "[8]": {"target": "T1, hepcidin (ヘプシジン)", "assay": "Phage display screening (Ph.D-12 library) on hepcidin-immobilised beads", "format": "binding", "set-up": "ビオチン化ヘプシジン(Bachem社製); purchased Bachem", "conditions": "displayed on M13 phage pIII; most frequent sequence among 64 plaques after the 5th panning"}, "[9]": {"conditions": "AdS-induced renal anemia mice, HBP day 15 to day 21 (7 times), blood on day 22, versus control (PBS), Fig. 4C-E"}, "[10]": {"conditions": "peptide added simultaneously with hepcidin"}}, "note": "Positions of bridges follow the written chain, without caps; N, C: chain ends. Residues, ends and D or L forms follow the SMILES beside them. No end group written: not given here."}
{"compound": "CSCC[C@@H]1NC(=O)[C@H](CO)NC(=O)[C@@H]2CCCN2C(=O)[C@H](Cc2c[nH]c3ccccc23)NC(=O)[C@H](CCSC)NC(=O)[C@H](CC(=O)O)NC(=O)[C@H](Cc2c[nH]c3ccccc23)NC(=O)[C@H](CO)NC(=O)[C@@H](NC(=O)[C@H](C)NC(C)=O)CSSC[C@@H](C(=O)NCC(N)=O)NC(=O)CNC(=O)[C@H](CCC(=O)O)NC(=O)[C@H](C)NC(=O)[C@H](CCCCN)NC(=O)[C@H](Cc2c[nH]c3ccccc23)NC(=O)[C@H](CC(=O)O)NC1=O", "note": "[HBP, ACSWDMWPSMDWKAEGCG] (Ac-ACSWDMWPSMDWKAEGCG-NH2; disulfide 2-17)", "values": [{"measurement": "hematocrit (HCt)", "setting": "[1]; [9]", "result": "有意に上昇した"}, {"measurement": "hemoglobin (Hb)", "setting": "[1]; [9]", "result": "有意に上昇した"}, {"measurement": "red blood cell count (RBC)", "setting": "[1]; [9]", "result": "有意に上昇した"}, {"measurement": "blood biochemistry showing improvement of anemia and renal failure", "setting": "[1]; AdS-induced renal failure mice, HBP day 15 to day 21, day 22, BUN, CRE, serum iron, TSAT, ferritin, CRP, hepcidin, EPO, Fig. 5A-H", "result": "貧血の改善及び腎不全の改善を示す結果が確認された"}, {"measurement": "amount of ferroportin (FPN-EGFP)", "setting": "[2]; peptide added simultaneously with human hepcidin, Fig. 6 lanes 4 and 5", "result": "FPN-EGFP量の低下が抑制された"}, {"measurement": "intracellular iron (as ferritin)", "setting": "[3]; [10]", "result": "細胞内鉄量の増加が抑制された"}, {"measurement": "intracellular iron (as ferritin)", "setting": "[4]; [10]", "result": "細胞内鉄量の増加が抑制された"}, {"measurement": "serum iron", "setting": "[5]; peptide given simultaneously with hepcidin", "result": "血中鉄量の減少が抑制された"}, {"measurement": "Kd", "setting": "[6]; biotinylated hepcidin on streptavidin sensor chip, read-out: dissociation constant", "result": 29, "unit": "nM"}, {"measurement": "specific binding to hepcidin", "setting": "[6]; Fig. 3", "result": "ヘプシジンに特異的に結合することが確認された"}]}
{"compound": "WDMWPSMDWKAE", "values": [{"measurement": "binding to hepcidin", "setting": "[7]; cyclised form", "result": "ヘプシジンに特異的に結合する"}, {"measurement": "binding to hepcidin", "setting": "[7]; linear form", "result": "線状ではヘプシジンに結合しない"}, {"measurement": "possibility of specific binding to hepcidin", "setting": "[8]", "result": "ヘプシジンに特異的に結合する可能性が示された"}]}
{"compound": "ヘプシジン: human hepcidin (Peptide Institute, Inc.) (DTHFPICIFCCGCCHRSKCGMCCKT; ends and bridges not checked; cysteine pairing not given here; UniProt P81172 60-84, looked up) [reference compound]", "values": [{"measurement": "amount of ferroportin (FPN-EGFP)", "setting": "[2]; hepcidin added alone, Fig. 6 lane 3", "result": "フェロポーチンの量(FPN-EGFP量)は低下した"}, {"measurement": "intracellular iron (as ferritin)", "setting": "[3]; hepcidin alone", "result": "細胞内の鉄量は増加した"}, {"measurement": "intracellular iron (as ferritin)", "setting": "[4]; hepcidin alone", "result": "細胞内の鉄量は増加した"}, {"measurement": "serum iron", "setting": "[5]; hepcidin alone", "result": "血中の鉄量は減少した"}]}
